The IC50 is the concentration at which inhibition is half-maximal.

The record followed here is US11964953B2, “Substituted aminothiazoles as DGKzeta inhibitors for immune activation” (Bayer Aktiengesellschaft, priority 2020, dated 2024).

human DGKζ, sequence (Q13574 other isoform, or with tags, fused parts or gaps): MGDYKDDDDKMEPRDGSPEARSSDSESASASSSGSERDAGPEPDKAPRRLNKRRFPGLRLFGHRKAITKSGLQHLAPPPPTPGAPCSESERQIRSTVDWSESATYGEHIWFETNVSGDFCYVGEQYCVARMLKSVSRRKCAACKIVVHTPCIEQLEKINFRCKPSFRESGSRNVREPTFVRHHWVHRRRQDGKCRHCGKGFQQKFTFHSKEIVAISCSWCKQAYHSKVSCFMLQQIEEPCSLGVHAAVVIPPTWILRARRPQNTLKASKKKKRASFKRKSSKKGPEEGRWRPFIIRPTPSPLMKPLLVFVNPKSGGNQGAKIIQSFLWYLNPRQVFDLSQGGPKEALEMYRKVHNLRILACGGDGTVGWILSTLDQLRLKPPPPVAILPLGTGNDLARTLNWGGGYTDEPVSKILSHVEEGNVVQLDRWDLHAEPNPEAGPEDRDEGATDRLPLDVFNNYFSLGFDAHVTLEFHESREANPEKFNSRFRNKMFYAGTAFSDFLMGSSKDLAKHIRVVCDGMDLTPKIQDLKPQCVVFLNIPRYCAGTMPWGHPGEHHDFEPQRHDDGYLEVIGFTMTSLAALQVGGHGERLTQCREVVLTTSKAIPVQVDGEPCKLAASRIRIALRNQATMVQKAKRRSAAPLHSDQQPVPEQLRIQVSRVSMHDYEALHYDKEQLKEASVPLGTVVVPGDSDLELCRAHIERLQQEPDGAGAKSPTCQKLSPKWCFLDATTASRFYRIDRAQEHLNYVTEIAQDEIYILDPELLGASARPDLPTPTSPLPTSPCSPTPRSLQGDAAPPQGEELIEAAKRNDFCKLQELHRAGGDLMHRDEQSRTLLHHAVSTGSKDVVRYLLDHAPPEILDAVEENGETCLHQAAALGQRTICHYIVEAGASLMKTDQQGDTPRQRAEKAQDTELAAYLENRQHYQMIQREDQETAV

The target in the assay is human DGKζ (Homo sapiens (Human), UniProt Q13574). As to the kind of experiment: Human DGKζ kinase activity inhibition assay (ADP-Glo). The format is biochemical. The following applies: in vitro human DGKζ kinase activity inhibition assay; read-out: IC50. Summed up:
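ADP-Glo luminescence, reflecting ADP produced, served as the readout of activity. Full-length human DGKζ, FLAG-tagged at the C-terminus and insect-cell expressed, was used; lipid substrate mix was sonicated with octyl-β-D-glucopyranoside in 50 mM MOPS pH 7.4.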
On the technique in general: ADP-Glo first removes unused ATP, then detects ADP through luciferase.
Regarding `CC(=O)Nc1ccc(C(=O)c2sc(N(c3ccc(F)cc3)C(C)C(N)=O)nc2N)cc1` (racemic) [Example 185, rac-2-(N-[5-(4-acetamidobenzoyl)-4-amino-thiazol-2-yl]-4-fluoro-anilino)propanamide], the IC50 was determined as 301 nM. For the compound `CC(C(N)=O)N(c1ccc(F)cc1)c1nc(N)c(C(=O)c2ccnc(Cl)c2)s1` (racemic) [Example 186, rac-2-(N-[4-amino-5-(2-chloropyridine-4-carbonyl)thiazol-2-yl]-4-fluoro-anilino)propanamide], the IC50 was 392 nM.

On to `Cc1cc(C(=O)c2sc(N(c3ccc(F)cc3)C(C)C(N)=O)nc2N)ccn1` (racemic) [Example 187, rac-2-(N-[4-amino-5-(2-methylpyridine-4-carbonyl)thiazol-2-yl]-4-fluoro-anilino)propanamide], for which the IC50 was determined as 1400 nM. The result for `CC(C(N)=O)N(c1ccc(F)cc1)c1nc(N)c(C(=O)c2ccnc(C(F)F)c2)s1` (racemic) [Example 188, rac-2-(N-[4-amino-5-[2-(difluoromethyl)pyridine-4-carbonyl]thiazol-2-yl]-4-fluoro-anilino)propanamide] reads 1240 nM; that for `CC(C(N)=O)N(c1ccncc1)c1nc(N)c(C(=O)c2ccccc2)s1` (racemic) [Example 189, rac-2-[(4-amino-5-benzoyl-thiazol-2-yl)-(4-pyridyl)amino]propanamide], 6350 nM; that for `COc1cc(C(=O)c2sc(N(c3ccc(F)cc3)C(C)C(N)=O)nc2N)ccn1` (racemic) [Example 190, rac-2-(N-[4-amino-5-(2-methoxypyridine-4-carbonyl)thiazol-2-yl]-4-fluoro-anilino)propanamide], 553 nM. As for `COc1ccc(N(c2nc(N)c(C(=O)c3ccccc3)s2)C(C)C(N)=O)cc1F` (racemic) [Example 191, rac-2-(N-(4-amino-5-benzoyl-thiazol-2-yl)-3-fluoro-4-methoxy-anilino)propanamide], the IC50 amounted to 356 nM. `CC(C(N)=O)N(c1ccc(C#N)c(F)c1)c1nc(N)c(C(=O)c2ccccc2)s1` (racemic) [Example 192, rac-2-(N-(4-amino-5-benzoyl-thiazol-2-yl)-4-cyano-3-fluoro-anilino)propanamide]: the IC50 was 224 nM. For the compound `CC(C(N)=O)N(c1ccc(Br)cc1)c1nc(N)c(C(=O)c2ccccc2)s1` (racemic) [Example 193, rac-2-(N-(4-amino-5-benzoyl-thiazol-2-yl)-4-bromo-anilino)propanamide], the half-inhibitory concentration (IC50) turned out to be 35 nM. For the compound `CC(C(N)=O)N(c1ccc(OC(F)F)c(Cl)c1)c1nc(N)c(C(=O)c2ccccc2)s1` (racemic) [Example 194, rac-2-[N-(4-amino-5-benzoyl-thiazol-2-yl)-3-chloro-4-(difluoromethoxy)anilino]propanamide], the IC50 worked out at 66 nM. The result for `CCOc1ccc(N(c2nc(N)c(C(=O)c3ccccc3)s2)C(C)C(N)=O)cc1` (racemic) [Example 195, rac-2-(N-(4-amino-5-benzoyl-thiazol-2-yl)-4-ethoxy-anilino)propanamide] reads 1000 nM; that for `CC(C(N)=O)N(c1ccc2c(c1)OCO2)c1nc(N)c(C(=O)c2ccccc2)s1` (racemic) [Example 196, rac-2-[(4-amino-5-benzoyl-thiazol-2-yl)-(1,3-benzodioxol-5-yl)amino]propanamide], 128 nM. For `CC(C(N)=O)N(c1ccc2c(c1)OC(F)(F)O2)c1nc(N)c(C(=O)c2ccccc2)s1` (racemic) [Example 197, rac-2-[(4-amino-5-benzoyl-thiazol-2-yl)-(2,2-difluoro-1,3-benzodioxol-5-yl)amino]propanamide] the value was 90 nM.

On to `CC(C(N)=O)N(c1ccc(OC(F)F)c(F)c1)c1nc(N)c(C(=O)c2ccccc2)s1` (racemic) [Example 198, rac-2-[N-(4-amino-5-benzoyl-thiazol-2-yl)-4-(difluoromethoxy)-3-fluoro-anilinojpropanamide], for which the IC50 came out at 88 nM.

For `CC(C(N)=O)N(c1ccc(OCc2ccccc2)cc1)c1nc(N)c(C(=O)c2ccccc2)s1` (racemic) [Example 199, rac-2-(N-(4-amino-5-benzoyl-thiazol-2-yl)-4-benzyloxy-anilino)propanamide], the IC50 amounted to 396 nM. For `COc1ccc(C(=O)c2sc(N(c3ccc(OC(F)F)c(Cl)c3)C(C)C(N)=O)nc2N)cc1` (racemic) [Example 200, rac-2-[N-[4-amino-5-(4-methoxybenzoyl)thiazol-2-yl]-3-chloro-4-(difluoromethoxy)anilino]propanamide] the value was 70 nM.

On to `CC(C(N)=O)N(c1ccc(OC(F)F)c(Cl)c1)c1nc(N)c(C(=O)c2ccc(OC(F)F)cc2)s1` (racemic) [Example 201, rac-2-[N-[4-amino-5-[4-(difluoromethoxy)benzoyl]thiazol-2-yl]-3-chloro-4-(difluoromethoxy)anilino]propanamide], for which the 50% inhibitory concentration (IC50) was 25 nM. For `CC(C(N)=O)N(c1ccc(OC(F)F)c(Cl)c1)c1nc(N)c(C(=O)c2ccc(Cl)cc2)s1` (racemic) [Example 202, rac-2-[N-[4-amino-5-(4-chlorobenzoyl)thiazol-2-yl]-3-chloro-4-(difluoromethoxy)anilino]propanamide] the value was 69 nM; for `CC(C(N)=O)N(c1ccc(OC(F)F)c(Cl)c1)c1nc(N)c(C(=O)c2ccncc2)s1` (racemic) [Example 203, rac-2-[N-[4-amino-5-(pyridine-4-carbonyl)thiazol-2-yl]-3-chloro-4-(difluoromethoxy)anilino]propanamide], 381 nM. For `CC(C(N)=O)N(c1ccc(OC(F)F)c(Cl)c1)c1nc(N)c(C(=O)c2ccc(OC(F)F)nc2)s1` (racemic) [Example 204, rac-2-[N-[4-amino-5-[6-(difluoromethoxy)pyridine-3-carbonyl]thiazol-2-yl]-3-chloro-4-(difluoromethoxy)anilino]propanamide] the value was 73 nM; for `COc1ccc(C(=O)c2sc(N(c3ccc(OC(F)F)c(F)c3)C(C)C(N)=O)nc2N)cc1` (racemic) [Example 205, rac-2-[N-[4-amino-5-(4-methoxybenzoyl)thiazol-2-yl]-4-(difluoromethoxy)-3-fluoro-anilino]propanamide], 54 nM. On to `CC(C(N)=O)N(c1ccc(OC(F)F)c(F)c1)c1nc(N)c(C(=O)c2ccc(Cl)cc2)s1` (racemic) [Example 206, rac-2-[N-[4-amino-5-(4-chlorobenzoyl)thiazol-2-yl]-4-(difluoromethoxy)-3-fluoro-anilino]propanamide], for which the IC50 was found to be 48 nM. For `CC(C(N)=O)N(c1ccc(OC(F)F)c(F)c1)c1nc(N)c(C(=O)c2ccc(OC(F)F)cc2)s1` (racemic) [Example 207, rac-2-[N-[4-amino-5-[4-(difluoromethoxy)benzoyl]thiazol-2-yl]-4-(difluoromethoxy)-3-fluoro-anilino]propanamide] the value was 22 nM; for `CC(C(N)=O)N(c1ccc(OC(F)F)c(F)c1)c1nc(N)c(C(=O)c2ccncc2)s1` (racemic) [Example 208, rac-2-[N-[4-amino-5-(pyridine-4-carbonyl)thiazol-2-yl]-4-(difluoromethoxy)-3-fluoro-anilino]propanamide], 672 nM.
